Results on 24 compounds are retold here after patent publication US7906655B2, “Hepatitis C virus inhibitors” (Bristol-Myers Squibb Company, priority 2008, dated 2011).

The structures appear in SMILES notation.

The first assay relates to HCV 1b genotype. The experiment in a line: HCV Replicon assay (HCV-neo replicon cells, wild-type). The note with it: HCV 1b genotype replicon; class symbols. It counts as cell-based. An outline of the steps: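 Inhibition was measured in HCV-neo (genotype 1b) replicon cells. Some assay versions used luciferase reporters.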
`COC(=O)NC(C(=O)N1[C@@H]2C[C@@H]2C[C@H]1c1nc2cc(-c3ccc(Oc4cccc5[nH]c([C@@H]6C[C@H]7C[C@H]7N6C(=O)C(NC(=O)OC)c6ccccc6)nc45)cc3)ccc2[nH]1)c1ccccc1` (stereo partly drawn) [Example V9, methyl (2-((1R,3S,5R)-3-(5-(4-((2-((1R,3S,5R)-2-(((methoxycarbonyl)amino)(phenyl)acetyl)-2-azabicyclo[3.1.0]hex-3-yl)-1H-benzimidazol-4-yl)oxy)phenyl)-1H-benzimidazol-2-yl)-2-azabicyclo[3.1.0]hex-2-yl)-2-oxo-1-phenylethyl) carbamate]: the concentration giving a half-maximal response (EC50) is less than 0.00457 µM.

For the compound `C[C@@](O)(C(=O)N1CCC[C@H]1c1nc2cc(C#Cc3ccc4[nH]c([C@@H]5CCCN5C(=O)[C@@](C)(O)c5ccccc5)nc4c3)ccc2[nH]1)c1ccccc1` [Example M16], the EC50 was less than 0.00457 µM. Still for that read-out and setting: with `O=C(C(=O)N1CCC[C@H]1c1nc2cc(C#Cc3ccc4[nH]c([C@@H]5CCCN5C(=O)C(=O)c5ccccc5)nc4c3)ccc2[nH]1)c1ccccc1` [Example M26.3, 2.2′-(1,2-ethynediylbis(1H-benzimidazole-5,2-diyl(2S)-2,1-pyrrolidinediyl))bis(2-oxo-1-phenylethanone)] the figure was 0.1 to 0.999 µM; with `O=C(Cc1ccccn1)N1CCC[C@H]1c1nc2cc(CCc3ccc4[nH]c([C@@H]5CCCN5C(=O)Cc5ccccn5)nc4c3)ccc2[nH]1` [Example M43, 5,5′-(1,2-ethanediyl)bis(2-((2S)-1-(2-pyridinylacetyl)-2-pyrrolidinyl)-1H-benzimidazole)], 0.00457 to 0.099 µM.

The same assay, now with this note: Hepatitis C virus, HCV 1b genotype replicon; class symbols.
As for `COC(=O)N[C@H](C(=O)N1CCC[C@H]1c1nc2cc(-c3ccc(Oc4cccc5[nH]c([C@@H]6CCCN6C(=O)[C@@H](NC(=O)OC)C(C)C)nc45)cc3)ccc2[nH]1)C(C)C` [Example V11, Methyl((1S)-1-(((2S)-2-(4-(4-(2-((2S)-1-((2S)-2-((methoxycarbonyl)amino)-3-methylbutanoyl)-2-pyrrolidinyl)-1H-benzimidazol-5-yl)phenoxy)-1H-benzimidazol-2-yl)-1-pyrrolidinyl)carbonyl)-2-methylpropyl)carbamate], the EC50 was less than 0.00457 µM. Still for that read-out and setting: with `CN(C)CC(=O)N1CCC[C@H]1c1nc2c(-c3ncc(-c4ccc5[nH]c([C@@H]6CCCN6C(=O)[C@@H](c6ccccc6)N(C)C)nc5c4)o3)cccc2[nH]1` [Example J28, (1R)-2-((2S)-2-(5-(2-(2-((2S)-1-((dimethyl-amino)acetyl)-2-pyrrolidinyl)-1H-benzimidazol-4-yl)-1,3-oxazol-5-yl)-1H-benzimidazol-2-yl)-1-pyrrolidinyl)-N,N-dimethyl-2-oxo-1-phenyl-ethanamine] the figure was less than 0.00457 µM.

For `O=C(c1ccoc1)N1CCC[C@H]1c1nc2ccc(C#Cc3ccc4[nH]c([C@@H]5CCCN5C(=O)[C@H]5CCCO5)nc4c3)cc2[nH]1` [Example M54.5, 5-((2-((2S)-1-(3-furoyl)-2-pyrrolidinyl)-1H-benzimidazol-6-yl)ethynyl)-2-((2S)-1-((2R)-tetrahydro-2-furanylcarbonyl)-2-pyrrolidinyl)-1H-benzimidazole], the half-maximal effective concentration (EC50) lay in the range of 0.00457 to 0.099 µM. In the case of `O=C(Cc1cccs1)N1CCC[C@H]1c1nc2cc(C#Cc3ccc4nc([C@@H]5CCCN5C(=O)[C@H]5CCCO5)[nH]c4c3)ccc2[nH]1` [Example M50, 5-((2-((2S)-1-((2R)-tetrahydro-2-furanylcarbonyl)-2-pyrrolidinyl)-1H-benzimidazol-6-yl)ethynyl)-2-((2S)-1-(2-thienylacetyl)-2-pyrrolidinyl)-1H-benzimidazole], the EC50 is less than 0.00457 µM.

Regarding `Cn1cccc1C(=O)N1CCC[C@H]1c1nc2ccc(C#Cc3ccc4[nH]c([C@@H]5CCCN5C(=O)[C@H]5CCCO5)nc4c3)cc2[nH]1` [Example M54.6, 5-((2-((2S)-1-((1-methyl-1H-pyrrol-2-yl)carbonyl)-2-pyrrolidinyl)-1H-benzimidazol-6-yl)ethynyl)-2-((2S)-1-((2R)-tetrahydro-2-furanylcarbonyl)-2-pyrrolidinyl)-1H-benzimidazole], the EC50 was in the range of 0.00457 to 0.099 µM.

On to `O=C(CC1CC1)N1CCC[C@H]1c1nc2cc(C#Cc3ccc4nc([C@@H]5CCCN5C(=O)CC5CC5)[nH]c4c3)ccc2[nH]1` [Example M8, 2-((2S)-1-(cyclopropylacetyl)-2-pyrrolidinyl)-5-((2-((2S)-1-(cyclopropylacetyl)-2-pyrrolidinyl)-1H-benzimidazol-6-yl)ethynyl)-1H-benzimidazole], for which the half-maximal effective concentration (EC50) was 0.00457 to 0.099 µM. `CC(=O)N1CCC[C@H]1c1nc2cc(C#Cc3ccc4nc([C@@H]5CCCN5C(C)=O)[nH]c4c3)ccc2[nH]1` [Example M54.28, 2-((2S)-1-acetyl-2-pyrrolidinyl)-5-((2-((2S)-1-acetyl-2-pyrrolidinyl)-1H-benzimidazol-6-yl)ethynyl)-1H-benzimidazole]: the EC50 was in the range of 0.1 to 0.999 µM.

As to `O=C(OCc1ccccc1)N1CCC[C@H]1c1nc2cc(C#Cc3ccc4nc([C@@H]5CCCN5C(=O)OCc5ccccc5)[nH]c4c3)ccc2[nH]1` [Example M26.4, benzyl (2S)-2-(5-((2-((2S)-1-((benzyloxy)carbonyl)-2-pyrrolidinyl)-1H-benzimidazol-6-yl)ethynyl)-1H-benzimidazol-2-yl)-1-pyrrolidinecarboxylate], the concentration giving a half-maximal response (EC50) fell in the range of 0.00457 to 0.099 µM. The same measure, in the same setting: with `CC(=O)N1CCC[C@H]1c1nc2ccc(C#Cc3ccc4[nH]c([C@@H]5CCCN5C(=O)[C@@H]5CCCN5C)nc4c3)cc2[nH]1` [Example M54.27, 5-((2-((2S)-1-acetyl-2-pyrrolidinyl)-1H-benzimidazol-6-yl)ethynyl)-2-((2S)-1-(1-methyl-L-prolyl)-2-pyrrolidinyl)-1H-benzimidazole] the figure was 1 to 10 µM; with `CN(C)[C@@H](C(=O)N1CCC[C@H]1c1nc2cc(-c3cnc(-c4ccc5nc([C@@H]6C[C@@H]7C[C@@H]7N6C(=O)[C@@H](c6ccccc6)N(C)C)[nH]c5c4)o3)ccc2[nH]1)c1ccccc1` [Example J23, (1R)-2-((2S)-2-(5-(2-(2-((1S,3S,5S)-2-((2R)-2-(dimethyl-amino)-2-phenylacetyl)-2-azabicyclo[3. 1.0]hex-3-yl)-1H-benzimidazol-5-yl)-1,3-oxazol-5-yl)-1H-benzimidazol-2-yl)-1-pyrrolidinyl)-N,N-dimethyl-2-oxo-1-phenyl-ethanamine], less than 0.00457 µM. The same measure, in the same setting: for `O=C(CC1CC1)N1CCC[C@H]1c1nc2cc(CCc3ccc4nc([C@@H]5CCCN5C(=O)CC5CC5)[nH]c4c3)ccc2[nH]1` [Example M44, 2-((2S)-1-(cyclopropylacetyl)-2-pyrrolidinyl)-5-(2-(2-((2S)-1-(cyclopropylacetyl)-2-pyrrolidinyl)-1H-benzimidazol-6-yl)ethyl)-1H-benzimidazole] the value was 0.1 to 0.999 µM; for `O=C(C1CC1)N1CCN(C(=O)OCc2ccccc2)C(c2nc3cc(CCc4ccc5nc(C6CN(C(=O)C7CC7)CCN6C(=O)OCc6ccccc6)[nH]c5c4)ccc3[nH]2)C1` (stereo not drawn) [OL12, benzyl 2-(5-(2-(2-(1-((benzyloxy)carbonyl)-4-(cyclopropylcarbonyl)-2-piperazinyl)-1H-benzimidazol-6-yl)ethyl)-1H-benzimidazol-2-yl)-4-(cyclopropylcarbonyl)-1-piperazinecarboxylate], 0.1 to 0.999 µM. Still for that read-out and setting: for `Cn1cccc1C(=O)N1CCC[C@H]1c1nc2cc(C#Cc3ccc4[nH]c([C@@H]5CCCN5C(=O)c5cccn5C)nc4c3)ccc2[nH]1` [Example M12, 5,5′-(1,2-ethynediyl)bis(2-((2S)-1-((1-methyl-1H-pyrrol-2-yl)carbonyl)-2-pyrrolidinyl)-1H-benzimidazole)] the value was 0.00457 to 0.099 µM; for `O=C(Cc1ccccc1)N1C[C@@H](N2CCCC2)C[C@H]1c1nc2cc(C#Cc3ccc4[nH]c([C@@H]5C[C@H](N6CCCC6)CN5C(=O)Cc5ccccc5)nc4c3)ccc2[nH]1` [Example M37.2, (3′S,5′S,3″″S,5″″S)-5′,5″-(1,2-ethynediylbis(1H-benzimidazole-5,2-diyl))bis(1′-(phenylacetyl)-1,3′-bipyrrolidine)], less than 0.00457 µM; for `O=C(Cc1ccccc1)N1CCCC[C@H]1c1nc2ccc(CCc3ccc4nc([C@@H]5CCCCN5C(=O)Cc5ccccc5)[nH]c4c3)cc2[nH]1` [Example F3, 5,5′-(1,2-ethanediyl)bis(2-((2S)-1-(phenylacetyl)-2-piperidinyl)-1H-benzimidazole)], 0.1 to 0.999 µM.

On to `O=C(Cc1ccccc1)N1CCC[C@H]1c1nc2cc(-c3cnc(-c4ccc5nc([C@@H]6CCCN6C(=O)Cc6ccccc6)[nH]c5c4)o3)ccc2[nH]1` [Example J16], for which the EC50 was 0.00457 to 0.099 µM. Same read-out and setting: with `C[C@](O)(C(=O)N1CCC[C@H]1c1nc2ccc(-c3ccc(-c4ccc5nc([C@@H]6CCCN6C(=O)[C@](C)(O)c6ccccc6)[nH]c5c4)o3)cc2[nH]1)c1ccccc1` [JG1, (2R,2′R)-1,1′-(2,5-furandiylbis(1H-benzimidazole-5,2-diyl(2S)-2,1-pyrrolidinediyl))bis(1-oxo-2-phenyl-2-propanol)] the figure was 0.00457 to 0.099 µM.

`O=C(C1CC1)N1CCC[C@H]1c1nc2cc(C#Cc3ccc4nc([C@@H]5CCCN5C(=O)C5CC5)[nH]c4c3)ccc2[nH]1` [Example M4, 2-((2S)-1-(cyclopropylcarbonyl)-2-pyrrolidinyl)-5-((2-((2S)-1-(cyclopropylcarbonyl)-2-pyrrolidinyl)-1H-benzimidazol-6-yl)ethynyl)-1H-benzimidazole]: the EC50 lay in the range of 0.00457 to 0.099 µM. On the same count and under the same terms, with `CC(=O)N[C@@H](C(=O)N1CCC[C@H]1c1nc2cc(-c3cnc(-c4ccc5nc([C@@H]6C[C@@H]7C[C@@H]7N6C(=O)[C@H](NC(C)=O)c6ccccc6)[nH]c5c4)o3)ccc2[nH]1)c1ccccc1` [Example J24, N-((1R)-2-((2S)-2-(5-(2-(2-((1S,3S,5S)-2-((2R)-2-acetamido-2-phenylacetyl)-2-azabicyclo[3. 1.0]hex-3-yl)-1H-benzimidazol-5-yl)-1,3-oxazol-5-yl)-1H-benzimidazol-2-yl)-1-pyrrolidinyl)-2-oxo-1-phenylethyl) acetamide] the figure was less than 0.00457 µM.

The assay is the same for the next values; noted with them: Hepatitis C virus, HCV 1b genotype replicon; numeric values.
In the case of `O=C(C1CC1)N1CCC[C@H]1c1nc2ccc(CCc3ccc4nc([C@@H]5CCCN5C(=O)C5CC5)[nH]c4c3)cc2[nH]1` [Example M41, 2-((2S)-1-(cyclopropylcarbonyl)-2-pyrrolidinyl)-5-(2-(2-((2S)-1-(cyclopropylcarbonyl)-2-pyrrolidinyl)-1H-benzimidazol-6-yl)ethyl)-1H-benzimidazole], the concentration for a half-maximal effect (EC50) turned out to be 0.46 µM.

What is called EC50 is the concentration at which the effect is half-maximal.
